Reference: the supplement of paper PMC11208160

Assay: recombinant barcode read abundance after kanamycin selection (control-corrected) (log10(CPM+1)); higher = more efficient recombination; sequences stand for … in AGTGCAGAGAAAATCGGCCAGTTTTCTCTGCCTGCAGTCCGCATGCCGT…AGATTTATGCAGCGGACTGCCTTTCTCCCAAAGTGATAAACCGGACAGTATCATGGACCGGTTTTCCCGGTAATCCGTATTTGCAAGGTTGGTTTCACT; site = the 11-nt target
Summary of the method: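 Recombination efficiency in this pooled E. coli screen uses counts per million of barcodes at recombinant junctions, averaged and corrected against the control. The reported form is log10(CPM+1). Two replicates were plated on chloramphenicol/ampicillin LB agar as control and two on chloramphenicol/ampicillin/kanamycin with 0.1 mM IPTG.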
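Also: IS621 recombinase and bridge RNA in Escherichia coli cells.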

In order of rising “recombinant barcode read abundance (log10)” value:
1. TTGAGGACTTGGGTTCTAACCTGTTGCCT (site GTGAGGACTAG)  0
2. TTCTCTCCTTGGGTTCTAACCTGTTGCCT (site TTCTGTCCTAG)  0.00855
3. TTGAGGACTTGGGTTCTAACCTGTTGCCT (site ATGAGGACTAG)  0.0377
4. TTGACGGCTTGGGTTCTAACCTGTTGCCT (site CCATTCCCTTA)  0.041
5. TTCGGCTCTTGGGTTCTAACCTGTTGCTA (site CGATCACCTAG)  0.0491
6. TTCTCTTCTTGGGTTCTAACCTGTTGCCT (site TTCTCTTCTAG)  0.0495
7. TTGAGTGCTTGGGTTCTAACCTGTTGCCT (site TTGACTGCTAG)  0.0508
8. TTCTTTCCTTGGGTTCTAACCTGTTGCCT (site TTCTATCCTAG)  0.0663
9. TTCTTTCCTTGGGTTCTAACCTGTTGCCT (site TTCTCTCCTAG)  0.0684
10. TTGACGACTTGGGTTCTAACCTGTTGCCA (site TTGTCGACTTG)  0.0686
11. TTCTTACCTTGGGTTCTAACCTGTTGCCT (site TACTTACCTAG)  0.0709
12. TTCTCTCCTTGGGTTCTAACCTGTTGCCT (site TTCTATCCTAG)  0.0831
13. TTCTTTCCTTGGGTTCTAACCTGTTGCCT (site TTCTGTCCTAG)  0.0839
14. TTCGGAGCTTGGGTTCTAACCTGTTGCTG (site TTGGGAGCTCA)  0.0871
15. TTCTCTTCTTGGGTTCTAACCTGTTGCCT (site TTCTGTTCTAG)  0.103
16. TTCTACACTTGGGTTCTAACCTGTTGCAT (site GAACCTTCTCC)  0.107
17. TTCTGAACTTGGGTTCTAACCTGTTGCCT (site GTCTCAACTAG)  0.109
18. TTCTTTCCTTGGGTTCTAACCTGTTGCCT (site TTCTTTCCTAG)  0.11
19. TTCTTGCCTTGGGTTCTAACCTGTTGCCT (site TTATTGTCTAG)  0.111
20. TTGACGACTTGGGTTCTAACCTGTTGCCA (site TTGGCGACTTG)  0.116
21. TTCTGAACTTGGGTTCTAACCTGTTGCCT (site TTCTGAACTAG)  0.126
22. TTGAGGCCTTGGGTTCTAACCTGTTGCGG (site TCGAGTCCTCC)  0.141
23. TTGAGGACTTGGGTTCTAACCTGTTGCCT (site CTGAGGACTAG)  0.146
24. TTGACGGCTTGGGTTCTAACCTGTTGCCT (site TTGACGGCTAG)  0.165
25. TTCTCTCCTTGGGTTCTAACCTGTTGCCT (site TTCTTTCCTAG)  0.169
26. TTCTCTCCTTGGGTTCTAACCTGTTGCCT (site TTCTCTCCTAG)  0.206
27. TTGACGACTTGGGTTCTAACCTGTTGCCA (site TTGCCGACTTG)  0.217
28. TTGAGTGCTTGGGTTCTAACCTGTTGCCT (site TTGAATGCTAG)  0.259
29. TTCGTAGCTTGGGTTCTAACCTGTTGCGT (site TTCGTAGCTAG)  0.285
30. TTCTACACTTGGGTTCTAACCTGTTGCAT (site TTCTACACTAT)  0.298
31. TTGACGACTTGGGTTCTAACCTGTTGCCA (site TTGACGACTTG)  0.36
32. TTCTACTCTTGGGTTCTAACCTGTTGCCT (site TTCTACTCTAG)  0.405
33. TTCGGCTCTTGGGTTCTAACCTGTTGCTA (site TTCGGCTCTTA)  0.605
34. TTGAGGACTTGGGTTCTAACCTGTTGCCT (site TTGAGGACTAG)  0.606
35. TTCTTACCTTGGGTTCTAACCTGTTGCCT (site TTCTTACCTAG)  0.654
36. TTCTTGCCTTGGGTTCTAACCTGTTGCCT (site TTCTTGCCTAG)  0.665
37. TTCTACTCTTGGGTTCTAACCTGTTGCCT (site CTCTACTCTAG)  0.75
38. TTCGTAGCTTGGGTTCTAACCTGTTGCGT (site TTCGTAGCTAC)  1.29
39. TTCGGAGCTTGGGTTCTAACCTGTTGCTG (site TTCGGAGCTCA)  1.56
40. TTGAGGCCTTGGGTTCTAACCTGTTGCGG (site TTGAGGCCTCC)  2.39
